Assay results as given in patent US8017611B2, “Pyridine and pyrazine derivatives -083” (AstraZeneca AB, priority 2007, dated 2011).
Like-named read-outs stand apart in the source and are kept apart here. Marks after values point to notes of the source that are not given here.

Molecular target: T1, recombinant Axl tyrosine kinase (Homo sapiens, UniProt P30530)
T1 construct: encompassing amino acids 473 to 894 of Axl; GST (N); made in house; host or cells: SF126 insect cells
T1 sequence (P30530 473-894): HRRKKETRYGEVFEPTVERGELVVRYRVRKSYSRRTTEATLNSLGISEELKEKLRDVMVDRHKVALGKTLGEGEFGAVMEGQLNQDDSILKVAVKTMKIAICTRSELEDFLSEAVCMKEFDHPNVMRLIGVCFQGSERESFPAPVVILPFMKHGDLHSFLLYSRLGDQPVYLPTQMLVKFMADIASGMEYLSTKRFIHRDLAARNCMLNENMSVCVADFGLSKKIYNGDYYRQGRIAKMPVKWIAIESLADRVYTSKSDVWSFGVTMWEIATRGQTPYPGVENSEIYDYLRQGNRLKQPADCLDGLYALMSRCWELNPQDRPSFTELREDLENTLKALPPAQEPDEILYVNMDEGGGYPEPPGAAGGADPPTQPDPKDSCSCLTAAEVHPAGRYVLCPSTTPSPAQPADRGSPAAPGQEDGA
Assay: In vitro Axl kinase assay (AlphaScreen), Test (a)
Assay type: biochemical
Settings: for % of Axl tyrosine kinase activity inhibited at a concentration of 30 μM: test compound at 30 μM
Description: Test compounds were prepared as 10 mM stock solutions in dimethylsulphoxide (DMSO) and diluted in DMSO as required. Aliquots (120 nl) of compound dilutions were filled into the wells of a Greiner 384-well low volume (LV) white polystyrene plate (Greiner Bio-one) using acoustic dispensing (Labcyte Echo 550). A 10 μl mixture of recombinant purified Axl enzyme, biotinylated peptide substrate (Biotin poly-GAT; CisBio, Catalogue No. 61GATBLB), 0.2 μM adenosine triphosphate (ATP) and a buffer solution [comprising 20 mM Tris-HCl pH 7.5 buffer, 0.01% v/v Tween, 5 mM dithiothreitol (DTT) and 10 mM manganese chloride] was incubated with the compounds at room temperature for 20 minutes.
Control wells that produced a minimum signal corresponding to 100% inhibited enzyme were created by adding 10 μM of Staurosporine.
The percentage kinase inhibition value is the percentage of Axl tyrosine kinase activity inhibited by the test compound at a concentration of 1 μM.

[1] = test compound at 1 μM, first value quoted
[2] = test compound at 1 μM, first value quoted, read-out: % Axl tyrosine kinase inhibition at 1 μM concentration

Structure (SMILES) | % Axl tyrosine kinase inhibition at 1 μM concentration [1] | further results
CN1CCCCC1CCOc1ccc(-c2cnc(N)c(-c3nc4ncccc4o3)c2)cc1 (stereo not shown) [Example 43B.13] | 96.8% | 
Nc1ncc(-c2ccc(OCCCN3CCCC3)cc2)cc1-c1nc2cccnc2o1 [Example 42, 3-oxazolo[5,4-b]pyridin-2-yl-5-[4-(3-pyrrolidin-1-ylpropoxy)phenyl]pyridin-2-amine] |  | inhibition at 1 µM [2]: 99.7%
Nc1ncc(-c2ccc(C(=O)N3CCC(N4CCCC4)CC3)cc2)cc1-c1nc2ncccc2o1 [Example 45B.5] | 99.9% | 
CN1CCC(n2cc(-c3cnc(N)c(-c4nc5cccc(C#N)c5o4)c3)cn2)CC1 [Example 64, 2-[2-amino-5-[1-(1-methyl-4-piperidyl)pyrazol-4-yl]-3-pyridyl]-1,3-benzoxazole-7-carbonitrile] |  | inhibition at 1 µM [2]: 99.1%
CN(C)CCNC(=O)c1cccc(-c2cnc(N)c(-c3nc4ncccc4o3)c2)c1 [Example 10A.18] | 84.7% | 
CN1CCN(CCn2cc(-c3cnc(N)c(-c4nc5ccccc5o4)c3)cn2)CC1 [Example 30, 3-(1,3-benzoxazol-2-yl)-5-[1-[2-(4-methylpiperazin-1-yl)ethyl]pyrazol-4-yl]pyridin-2-amine] |  | inhibition at 1 µM [2]: 99.8%
CN(C)CCOc1ccc(-c2cnc(N)c(-c3nc4ncccc4o3)c2)cc1 [Example 43B.2] | 96.9% | 
CC(C)(C)OC(=O)N1CCC(C(=O)Nc2cccc(-c3cnc(N)c(-c4nc5cccnc5o4)c3)c2)CC1 [Example 9A.3] | 73.4% | 
CN(C)CCNC(=O)c1cccc(-c2cnc(N)c(-c3nc4cccnc4o3)c2)c1 [Example 9A.5] | 75.2% | 
Nc1ncc(-c2ccc(C(=O)NCCN3CCCCC3)cc2)cc1-c1nc2cccnc2o1 [Example 45A.56] | 98.9% | 
Nc1ncc(-c2cnn(C3CCNCC3)c2)cc1-c1nc2c(F)cccc2o1 [Example 38A.2] | 100.0% | 
CCN(CC)CCCOc1ccc(-c2cnc(N)c(-c3nc4ncccc4o3)c2)cc1OC [Example 43C.18] | 99.8% | 
Nc1ncc(-c2cccc(C(=O)NCCN3CCOCC3)c2)cc1-c1nc2ncccc2o1 [Example 10A.2] | 63.9% | 
CN(C)CCNC(=O)c1cccc(-c2cnc(N)c(-c3nc4cnccc4o3)c2)c1 [Example 8A.24] | 95.6% | 
COc1cc(-c2cnc(N)c(-c3nc4ncccc4o3)c2)ccc1OCCOCCN1CCNCC1 [Example 43C.35] | 99.2% | 
CN1CCCC1CCOc1ccc(-c2cnc(N)c(-c3nc4ncccc4o3)c2)cc1 (stereo not shown) [Example 43B.17] | 99.5% | 
COc1cc(-c2cnc(N)c(-c3nc4ncccc4o3)c2)ccc1OC1CC2CCC(C1)N2C (stereo not shown) [Example 43C.19] | 99.7% | 
CC(C)N1CCC(CN(C)C(=O)c2ccc(-c3cnc(N)c(-c4nc5cccnc5o4)c3)cc2)C1 (stereo not shown) [Example 45A.42] | 99.3% | 

Structure (SMILES) | % Axl tyrosine kinase inhibition at 1 μM concentration [1] | further results
Nc1ncc(-c2cccc(C(=O)NC3CC3)c2)cc1-c1nc2ncccc2o1 [Example 10A.6] | 37.8% | 
CC(O)C(=O)N1CCC(n2cc(-c3cnc(N)c(-c4nc5ccccc5o4)c3)cn2)CC1 (stereo not shown) [Example 34.3] | 99.7% | 
CC1CN(CCCOc2ccc(-c3cnc(N)c(-c4nc5ncccc5o4)c3)cc2)CC(C)N1 (stereo not shown) [Example 43B.42] | 96.6% | 
Nc1ncc(-c2ccc(C(=O)N3CCCCC3CN3CCCCC3)cc2)cc1-c1nc2cccnc2o1 (stereo not shown) [Example 45A.8] | 99.8% | 
CN1CCN(S(=O)(=O)CCCOc2ccc(-c3cnc(N)c(-c4nc5ncccc5o4)c3)cc2)CC1 [Example 43B.24] | 98.2% | 
Nc1ncc(-c2ccc(CO)s2)cc1-c1nc2cccnc2o1 [Example 9A.19] | 95.6% | 
CN1CCC(n2cc(-c3cnc(N)c(-c4nc5ccccc5o4)c3)cn2)CC1 [Example 3, 3-(1,3-Benzoxazol-2-yl)-5-[1-(1-methyl-4-piperidyl)pyrazol-4-yl]pyridin-2-amine] |  | inhibition at 1 µM (1 μM, mean calculated from a larger number of replicates than the first value, read-out: % Axl tyrosine kinase inhibition at 1 μM concentration (second value, †)): 99.8%; inhibition at 1 µM [2]: 100%
CN(C)CCCNC(=O)c1ccc(-c2cnc(N)c(-c3nc4cnccc4o3)c2)cc1 [Example 8A.17] | 99.8% | 
CN(C)[C@@H]1CCN(C(=O)c2ccc(-c3cnc(N)c(-c4nc5cccnc5o4)c3)cc2)C1 [Example 45A.76] | 96.7% | 
Nc1ncc(-c2ccc(S(=O)(=O)NCCO)cc2)cc1-c1nc2cnccc2o1 [Example 8A.2] | 99.2% | 
Nc1ncc(-c2ccc(OCCOCCN3CCOCC3)cc2)cc1-c1nc2ncccc2o1 [Example 43B.22] | 97.7% | 
Nc1ncc(-c2ccc(C(=O)N3CCC(N4CCCC4)CC3)cc2)cc1-c1nc2cccnc2o1 [Example 45A.63] | 99.1% | 
CN1CCCC(NC(=O)c2ccc(-c3cnc(N)c(-c4nc5cccnc5o4)c3)cc2)C1 (stereo not shown) [Example 45A.19] | 98.7% | 
CN(C)CCCCNC(=O)c1ccc(-c2cnc(N)c(-c3nc4cccnc4o3)c2)cc1 [Example 45A.2] | 96.6% | 
NCCCCOc1ccc(-c2cnc(N)c(-c3nc4ncccc4o3)c2)cc1 [Example 43B.34] | 95.7% | 
Nc1ncc(-c2ccc(C(=O)NCCO)cc2)cc1-c1nc2cccnc2o1 [Example 9A.2] | 97.0% | 
Nc1ncc(-c2ccc(OCCCN3CCNCC3)cc2)cc1-c1nc2ncccc2o1 [Example 43B.38] | 8.1^†††† % | % of Axl tyrosine kinase activity inhibited at a concentration of 30 μM: ^††††the compound disclosed in Example 43B.38 inhibited 95.3% of Axl tyrosine kinase activity at a concentration of 30 μM.

Now from value to compound, other results behind:

% Axl tyrosine kinase inhibition at 1 μM concentration [1] | Structure (SMILES) | further results
100.0% | Cc1nn(C2CCN(C)CC2)cc1-c1cnc(N)c(-c2nc3ncccc3o2)c1 [Example 41.22] | 
9.8*** % | Nc1ncc(-c2cccc3ccccc23)cc1-c1nc2ccccc2o1 [Example 2.43] | % of Axl tyrosine kinase activity inhibited at a concentration of 30 μM: ***the compound disclosed in Example 2.43 inhibited 57% of Axl tyrosine kinase activity at a concentration of 30 μM.
99.7% | COCCOCC(=O)N1CCC(n2cc(-c3cnc(N)c(-c4nc5ncccc5o4)c3)cn2)CC1 [Example 59.5] | 
94.3% | Nc1ncc(-c2cnn(CCN3CCC3)c2)cc1-c1nc2ccccc2o1 [Example 31.10] | 
99.9% | CN1CCC(n2cc(-c3cnc(N)c(-c4nc5ccccc5o4)c3)c(N(C)C)n2)CC1 [Example 41.31] | 
99.0% | CN1CCC(n2cc(-c3cnc(N)c(-c4nc5ccc(Cl)cc5o4)c3)cn2)CC1 [Example 7.7] | 
99.6% | C[C@H](O)C(=O)N1CCC(n2cc(-c3cnc(N)c(-c4nc5cccnc5o4)c3)cn2)CC1 [Example 57.7] | 
97.9% | Nc1ncc(-c2cccc(CN3CCOCC3)c2)cc1-c1nc2ccccc2o1 [Example 2.22] | 
40.7% | N#Cc1cccc(-c2cnc(N)c(-c3nc4ccccc4o3)c2)c1 [Example 2.40] | 
96.1% | Nc1ncc(-c2ccc(S(=O)(=O)NC3CC3)cc2)cc1-c1nc2ccccc2o1 [Example 2.30] | 
99.1% | Nc1ncc(-c2ccc(CN3CCOCC3)cc2)cc1-c1nc2ccccc2o1 [Example 2.7] | 
99.6% | CNC(=O)c1nn(C2CCN(C)CC2)cc1-c1cnc(N)c(-c2nc3ccccc3o2)c1 [Example 41.33] | 
99.7% | CN(C)C(=O)CN1CCC(n2cc(-c3cnc(N)c(-c4nc5ncccc5o4)c3)cn2)CC1 [Example 53.1] | 
98.8% | NC(=O)CN1CCC(n2cc(-c3cnc(N)c(-c4nc5ncccc5o4)c3)cn2)CC1 [Example 53.3] | 
99.9% | Nc1ncc(-c2cnn(C3CCCNC3)c2)cc1-c1nc2ccccc2o1 (stereo not shown) [Example 29.6] | 
99.8% | Nc1ncc(-c2cnn(C3CNC3)c2)cc1-c1nc2ccccc2o1 [Example 29.2] | 
99.3% | COCCC(=O)N1CCC(n2cc(-c3cnc(N)c(-c4nc5ncccc5o4)c3)cn2)CC1 [Example 59.1] | 
